Laboratory results published in PubChem BioAssay (NCI).
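Step 1: Grow cells in 96-well plates. Step 2: Expose to compound for 48 hours at 5 concentrations. Step 3: Interpolate endpoints linearly; if unreached, use highest concentration. The concentration for full growth arrest is given as TGI.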

Key:
Assay in all cases: NCI anticancer screen, dose series, 48 h
BT-549 breast = test system: BT-549 breast
EKVX NSCLC = test system: EKVX NSCLC
LOX IMVI melanoma = test system: LOX IMVI melanoma
NCI-H522 lung = test system: NCI-H522 lung
NCI/ADR-RES ovarian = test system: NCI/ADR-RES ovarian
SF-539 CNS = test system: SF-539 CNS
SK-MEL-5 melanoma = test system: SK-MEL-5 melanoma
SN12C renal = test system: SN12C renal
786-0 renal = test system: 786-0 renal
NCI-H226 lung = test system: NCI-H226 lung

SMILES	TGI (BT-549 breast) [µM]	TGI (EKVX NSCLC) [µM]	TGI (LOX IMVI melanoma) [µM]	TGI (NCI-H522 lung) [µM]	TGI (NCI/ADR-RES ovarian) [µM]	TGI (SF-539 CNS) [µM]	TGI (SK-MEL-5 melanoma) [µM]	TGI (SN12C renal) [µM]	TGI (786-0 renal) [µM]	TGI (NCI-H226 lung) [µM]
C=C1CC(O)C2C(=C)C(=O)OC2C2C(C)C(=O)CC12 (stereo not drawn)	21.5	35.6	80.2	19.9	49.7	54.2	47	29.9	–	–
Cc1cc(O)c(C(C)C)cc1C(=S)Nc1ccc(Cl)cc1	30.7	25.3	24	17.8	34.5	29.6	23.8	–	27.3	–
CC(C)(CO)CNc1cc(Cl)nc(N)n1	> 100	> 100	> 100	> 100	> 100	> 100	> 100	> 100	> 100	> 100
Fc1ccc2c(c1)nc1n2C(c2c(F)cccc2F)SC1 (stereo not drawn)	> 100	> 100	> 100	> 100	> 100	> 100	68.3	> 100	> 100	> 100
c1ccc(OCc2nnc(CCCCCCCCc3nnc(COc4ccccc4)o3)o2)cc1	> 100	> 100	> 100	> 100	> 100	> 100	> 100	> 100	> 100	> 100
CC(C)=CCC[C@@H](C)C1=C(O)C(Nc2ccccc2)=C(C)C(=O)C1=O	> 100	> 100	> 100	–	45.6	84.8	55.6	> 100	> 100	> 73.4
C=C(Cl)CN1c2ccccc2C=Cc2ccccc21	> 100	49.9	52.4	82	> 100	75.2	20.3	57.3	> 100	70.2
COc1ccc(C2=Nc3c(nc(SC)[nH]c3=O)NC(c3ccccc3)C2)cc1 (stereo not drawn)	66.1	67.8	> 100	35.7	77.3	37.3	30.1	47.2	> 100	65.2
CC(C)OP(=O)(OC(C)C)/C(C#N)=C/c1c[nH]c2ccccc12	89.3	> 100	> 100	> 100	> 100	> 100	> 100	> 100	> 100	> 100
Clc1ncnc2c1nc(C#Cc1ccccc1)n2C1CCCCO1 (stereo not drawn)	4.1	3.67	4.79	3.65	7.01	4.28	5.06	–	3.64	6.47
Nc1ccc(C(=O)O)cc1	–	> 100	> 100	> 100	> 100	> 100	> 100	> 100	> 100	> 100
CCCCCCCCCCOc1ccc(N=Nc2nnc(-c3ccc(OCCCCC)cc3)s2)cc1	> 100	> 100	> 100	> 100	> 100	> 100	> 100	> 100	> 100	–
COc1ccc(C2NC(N)=C(C#N)C3=C2C(C)CCC3)cc1OC (stereo not drawn)	> 100	> 100	> 100	–	> 100	> 100	> 100	> 100	> 100	> 100
O=C1Nc2ccccc2SC1=C(C(=O)c1ccccc1)C(=O)c1ccccc1	> 90.2	> 100	> 100	87.1	> 100	> 100	> 100	> 89.8	> 100	> 87.5
CC1=NN2CCC(=O)N=C2S1	> 100	> 100	> 100	> 100	> 100	> 100	> 100	> 100	> 100	> 100
COC(=N)CCCl	> 100	> 100	–	> 100	> 100	> 100	> 100	> 100	> 100	> 100
Cc1ccsc1/C=N/Nc1cc(C)c2ccccc2n1	44.8	28.8	25.9	–	31	–	9	34	31.8	37.1
COc1cc(-c2nc(SC)nc3c2CCc2ccccc2-3)cc(OC)c1OC	> 100	92.8	> 100	–	> 100	> 100	> 100	> 100	> 100	–
CN1C/C(=C\c2cccs2)C(=O)/C(=C/c2cccs2)C1	72.1	75.8	41	> 100	94.5	–	> 100	76.5	49.2	> 100
COc1ccc(/C=C(/c2ccc(OC)cc2)c2c(Cl)cc(Cl)c(/C(=C\c3ccc(OC)cc3)c3ccc(OC)cc3)c2N=Nc2ccccc2)cc1	> 100	> 100	> 100	> 100	> 100	> 100	> 100	> 100	> 100	–
CCCCCCCCCCCCCCCCCCNc1nc(=O)n(C2CC(OP(=O)(O)OCC3OC(n4cc(F)c(=O)[nH]c4=O)CC3O)C(CO)O2)cc1F (stereo not drawn)	–	> 100	> 100	> 100	> 100	43.9	> 100	> 100	> 100	> 100
O=C(NNc1nc(-c2ccccc2)cs1)Nc1ccccc1	60.9	> 100	–	–	45.8	–	38.2	97.8	85	46.5
Cc1ccc(S(=O)(=O)NC(=O)NC(CC(=O)O)C(=O)O)cc1 (stereo not drawn)	> 100	–	> 100	> 100	> 100	> 100	> 100	> 100	> 100	–
